The source of these data is US8883801B2, “Substituted pyrazolo[1,5-a]pyrimidines as mTOR inhibitors” (Merck Sharp & Dohme Corp., priority 2010, dated 2014).

Like-named read-outs stand apart in the source and are kept apart here.

Experiment [1] has as its target human mTOR enzyme (Homo sapiens, UniProt P42345). Put plainly: HTRF mTOR enzyme (kinase) assay. It counts as biochemical. Particulars: rated class; 5 μM ATP, 0.2 μM GST-S6K; read-out: hMTOR IC50. Background: Time-resolved FRET reads energy transfer from a long-lived donor to a nearby acceptor.
The test system of experiment [2] is mTORC2 activity: phosphorylated AKT Ser473 (pAKT S473) in PC3 cells. Briefly: mTOR target engagement assay, immunofluorescent cell-based, mTORC2 readout. The note with it: rated class, 90 min treatment. A digest of the protocol: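 Read-out is immunofluorescence intensity, normalized to DMSO-only wells and fitted to a sigmoidal Hill equation for IC50. The mTORC1 arm probes phospho-4E-BP1 Thr37/46 and the mTORC2 arm phospho-AKT Ser473.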

Experiment [3] has as its system mTORC1 activity: phosphorylated 4E-BP1 Thr37/46 (p4E-BP1 Thr37/46) in PC3 cells. Briefly: mTOR target engagement assay, immunofluorescent cell-based, mTORC1 readout. The note with it: rated class, 90 min treatment, read-out: P4EBP1 IC50. The method, then:
The target engagement of mTOR kinase inhibitors was evaluated using an immunofluorescent cell-based assay. In this assay, inhibition of mTORC1 activity was measured by the reduction in the level of phosphorylated 4E-BP1Thr37/46 (p4E-BP1 Thr37/46), and inhibition of mTORC2 activity was measured by the reduction of phosphorylated AKTSer473 (pAKT S473).
PC3 cells (prostate tumor cell-line that contains a mutation in the tumor suppressor PTEN, that promotes the phosphorylation and activation of AKT and 4E-BP1) were used in the immunofluorescence assay. PC3 cells were seeded on 384 well plates (black clear bottom, Matrix #4332) overnight. PC3 cells were then treated with 40 μl of the serially diluted test compounds (in 5% fetal bovine serum, F12 medium containing 0.25% DMSO) for ninety minutes at 37° C. The test compound solution was removed, and the plates were washed gently two times with 25 μl phosphate buffered saline (PBS). The cells were fixed by adding 25 μl of Prefer reagent (from Anatech LTD, Cat#414, a glyoxal fixative for fixing proteins within a cell) for sixty minutes followed by three washes with PBS. 5% Goat serum in PBS/0.3% Triton was used to block non-specific binding (60 minutes).
The primary antibodies targeting pAKT S473 and p4E-BP1 Thr37/46 were diluted into PBS/0.3% Triton and incubated with the cells overnight at 4° C. The antibodies targeting pAKTS473 (Cat#4085, Cell signaling) and p4E-BP1 Thr37/46 (Cat#2855, Cell signaling) were used at a 1:100 dilution. Plates were washed three times with PBS/0.1% Tween 20 before adding the secondary antibody at a 1:200 dilution. (goat anti-rabbit containing a fluorescent label, Alexa Fluor 488, Cat#A11008, Invitrogen) in PBS/0.3% Triton for 60 minutes.
Finally, the plates were washed three times with PBS/0.1% Tween 20 and the fluorescent intensity was read using an Analyst HT from Molecular Devices. The fluorescent intensity values from the serially diluted compound treatment group were analyzed using the Xlfit 4 program ([…]) (Formula 205: Y=Bottom+(Top-Bottom)/(1+(IC50/X)^Hillslope) to generate the IC50 value. Where Top is the maximum signal without Compound (+DMSO only) and Bottom represents maximum inhibition. Y is the fluorescence at some compound concentration. The control used to determine the fluorescent intensities for 100% pAKT S473 or 100% phosphorylated p4E-BP1 Thr37/46 were measured from untreated wells that contained only DMSO, instead of test compound.

As a reminder, the IC50 is the point on the concentration scale where inhibition reaches its midpoint.

Chain of human mTOR enzyme (P42345 1360-2549 limits assumed): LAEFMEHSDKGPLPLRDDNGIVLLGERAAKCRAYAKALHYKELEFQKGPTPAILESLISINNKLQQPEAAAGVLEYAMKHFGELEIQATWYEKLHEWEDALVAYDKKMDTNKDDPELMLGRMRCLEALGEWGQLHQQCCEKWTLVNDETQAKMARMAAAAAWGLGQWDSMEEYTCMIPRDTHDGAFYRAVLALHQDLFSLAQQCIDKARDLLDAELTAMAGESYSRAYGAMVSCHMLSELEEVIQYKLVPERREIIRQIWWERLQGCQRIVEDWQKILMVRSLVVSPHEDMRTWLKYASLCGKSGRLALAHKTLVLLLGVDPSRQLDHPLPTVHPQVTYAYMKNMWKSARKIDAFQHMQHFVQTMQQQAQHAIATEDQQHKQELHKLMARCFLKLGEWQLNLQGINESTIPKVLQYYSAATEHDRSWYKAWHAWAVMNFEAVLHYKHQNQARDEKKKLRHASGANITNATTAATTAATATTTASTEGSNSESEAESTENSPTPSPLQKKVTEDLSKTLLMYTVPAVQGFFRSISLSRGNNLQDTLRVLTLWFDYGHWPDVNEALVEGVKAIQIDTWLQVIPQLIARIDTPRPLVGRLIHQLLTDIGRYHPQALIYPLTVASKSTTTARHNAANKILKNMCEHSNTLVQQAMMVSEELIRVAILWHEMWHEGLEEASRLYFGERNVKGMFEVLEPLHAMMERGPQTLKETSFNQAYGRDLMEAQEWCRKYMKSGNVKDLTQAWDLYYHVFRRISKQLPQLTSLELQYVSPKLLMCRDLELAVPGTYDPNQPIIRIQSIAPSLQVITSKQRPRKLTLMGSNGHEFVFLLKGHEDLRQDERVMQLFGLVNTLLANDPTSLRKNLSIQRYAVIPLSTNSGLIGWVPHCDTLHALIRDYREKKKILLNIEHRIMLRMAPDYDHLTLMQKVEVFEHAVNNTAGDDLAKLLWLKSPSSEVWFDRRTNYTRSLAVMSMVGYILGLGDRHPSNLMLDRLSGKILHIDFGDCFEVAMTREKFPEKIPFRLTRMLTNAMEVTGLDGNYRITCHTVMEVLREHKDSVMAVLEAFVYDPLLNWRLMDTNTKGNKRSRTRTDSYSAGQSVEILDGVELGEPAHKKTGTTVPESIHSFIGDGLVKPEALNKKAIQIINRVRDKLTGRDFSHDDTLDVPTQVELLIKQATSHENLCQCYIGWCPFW

Turning to `COCCO[C@]1(C(=O)O)CC[C@@H](c2nc3c(-c4ccc(-c5ccccn5)nc4)cnn3c(N)c2S(C)(=O)=O)CC1` [Compound 50, (1R,4R)-4-(3-(2,2′-bipyridin-5-yl)-7-amino-6-(methylsulfonyl)-pyrazolo[1,5-a]-pyrimidin-5-yl)-1-(2-methoxyethoxy)-cyclohexanecarboxylic acid], the IC50 lay within 1 to 100 nM in experiment [1]; 100 to 1000 nM in experiment [2] (Homo sapiens, PC-3, 1.5 h); 100 to 1000 nM in experiment [3] (Homo sapiens, PC-3, 1.5 h).
`C[C@]1(C(=O)O)CC[C@@H](c2nc3c(-c4ccc(-c5ccccc5)nc4)cnn3c(N)c2C#N)CC1` [Compound 26, (1S,4S)-4-(7-amino-6-cyano-3-(6-phenylpyridin-3-yl)pyrazolo[1,5-a]pyrimidin-5-yl)-1-methylcyclohexanecarboxylic acid]: the 50% inhibitory concentration (IC50) in experiment [1] fell in the range of 1 to 100 nM; in experiment [2], 1 to 100 nM; in experiment [3], 100 to 1000 nM.
For the compound `COCCO[C@]1(C(=O)O)CC[C@@H](c2nc3c(-c4cnc(-c5ncc(C)s5)nc4)cnn3c(N)c2S(C)(=O)=O)CC1` [Compound 51, (1R,4R)-4-(7-amino-6-(methylsulfonyl)-3-(2-(5-methylthiazol-2-yl)pyrimidin-5-yl)pyrazolo[1,5-a]pyrimidin-5-yl)-1-(2-methoxyethoxy) cyclohexanecarboxylic acid], the concentration for half-maximal inhibition (IC50) in experiment [1] lay in the range of 1 to 100 nM; in experiment [2] (Homo sapiens, PC-3, 1.5 h) it was 100 to 1000 nM; in experiment [3] (Homo sapiens, PC-3, 1.5 h), 1000 to 2000 nM.
For `COCCO[C@]1(C(=O)NO)CC[C@@H](c2nc3c(-c4ccc(-c5ncc[nH]5)nc4)cnn3c(N)c2C(C)=O)CC1` [Compound 115, (1R,4R)-(3-(6-(1H-imidazol-2-yl)pyridin-3-yl)-6-acetyl-7-aminopyrazolo[1,5-a]pyrimidin-5-yl)-N-hydroxy-1-(2-methoxyethoxy)cyclohexane carboxamide] the same measures were 1 to 100 nM, 1 to 100 nM and 1 to 100 nM.
For `COCCO[C@]1(C(=O)NO)CC[C@@H](c2nc3c(-c4ccc(-c5ccccc5)nc4)cnn3c(N)c2C(C)=O)CC1` [Compound 102, (1R,4R)-4-(6-acetyl-7-amino-3-(6-phenylpyridin-3-yl)pyrazolo[1,5-a]pyrimidin-5-yl)-N-hydroxy-1-(2-methoxyethoxy)-cyclohexane-carboxamide] the same measures were 1 to 100 nM, 100 to 1000 nM and 100 to 1000 nM.
Taken in the same sequence, the figures for `Nc1c(Br)c(C2CCC(O)(C(=O)O)CC2)nc2c(-c3ccc(-c4ccccc4)nc3)cnn12` (centres unmarked) [Compound 131, 4-(7-amino-6-bromo-3-(6-phenylpyridin-3-yl)pyrazolo[1,5-a]pyrimidin-5-yl)-1-hydroxycyclohexanecarboxylic acid] were 1 to 100 nM, 1000 to 2000 nM and 2000 to 5000 nM.
In the case of `COCC1(CO)CCC(c2nc3c(-c4ccc(-c5ccccc5)nc4)cnn3c(N)c2C(C)=O)CC1` (centres unmarked) [Compound 170, 1-(7-amino-5-(4-(hydroxymethyl)-4-(methoxymethyl)-cyclohexyl)-3-(6-phenylpyridin-3-yl)pyrazolo[1,5-a]pyrimidin-6-yl)ethanone], the IC50 in experiment [1] lay within 1 to 100 nM; in experiment [2] (Homo sapiens, PC-3, 1.5 h) it was 1000 to 2000 nM.
For the compound `COC[C@]1(C(=O)O)CC[C@H](c2nc3c(-c4cnc5ccc(F)cc5c4)cnn3c(N)c2Br)CC1` [Compound 7, (1R,4R)-4-(7-amino-6-bromo-3-(6-fluoroquinolin-3-yl)pyrazolo[1,5-a]pyrimidin-5-yl)-1-(methoxymethyl)-cyclohexane-carboxylic acid], the IC50 in experiment [1] was in the range of 1 to 100 nM; in experiment [2] (Homo sapiens, PC-3, 1.5 h), 1000 to 2000 nM.
Regarding `COCCO[C@]1(C(=O)O)CC[C@@H](c2nc3c(-c4ccc(-c5cscn5)nc4)cnn3c(N)c2C(C)=O)CC1` [Compound 62, (1R,4R)-4-(6-acetyl-7-amino-3-(6-(thiazol-4-yl)pyridin-3-yl)pyrazolo[1,5-a]pyrimidin-5-yl)-1-(2-methoxyethoxy) cyclohexanecarboxylic acid], the half-inhibitory concentration (IC50) in experiment [1] is 1 to 100 nM; in experiment [2] (Homo sapiens, PC-3, 1.5 h), 100 to 1000 nM.
For `CO[C@]1(C(=O)O)CC[C@@H](c2nc3c(-c4cnc5ccc(F)cc5c4)cnn3c(N)c2Br)CC1` [Compound 33, (1R,4R)-4-(7-amino-6-bromo-3-(6-fluoroquinolin-3-yl)pyrazolo[1,5-a]pyrimidin-5-yl)-1-methoxycyclohexane-carboxylic acid] the same measures were 1 to 100 nM and 1000 to 2000 nM.
Regarding `CC(=O)c1c(N)n2ncc(-c3ccc(-c4ccccc4)nc3)c2nc1[C@H]1CC[C@@](OCCN2CCOCC2)(C(=O)O)CC1` [Compound 58, (1R,4R)-4-(6-acetyl-7-amino-3-(6-phenylpyridin-3-yl)pyrazolo[1,5-a]pyrimidin-5-yl)-1-(2-morpholinoethoxy) cyclohexanecarboxylic acid], the half-maximal inhibitory concentration (IC50) in experiment [1] is 1 to 100 nM; in experiment [2] (Homo sapiens, PC-3, 1.5 h), 100 to 1000 nM.
For `Nc1c(Br)c([C@H]2CC[C@](O)(CC(=O)O)CC2)nc2c(-c3ccc(-c4ccccc4)nc3)cnn12` [Compound 77, 2-((1S,4S)-4-(7-amino-6-bromo-3-(6-phenylpyridin-3-yl)pyrazolo[1,5-a]pyrimidin-5-yl)-1-hydroxycyclohexyl)-acetic acid] the same measures were 1 to 100 nM and 1000 to 2000 nM.
Taken in the same sequence, the figures for `COCCOC[C@]1(C(=O)O)CC[C@H](c2nc3c(-c4cnn(-c5ccccc5)c4)cnn3c(N)c2Br)CC1` [Compound 13, (1R,4R)-4-(7-amino-6-bromo-3-(1-phenyl-1H-pyrazol-4-yl)pyrazolo[1,5-a]pyrimidin-5-yl)-1-((2-methoxyethoxy)methyl)cyclohexane-carboxylic acid] were 1 to 100 nM and 5000 to 15000 nM.
For `CC(=O)c1c(N)n2ncc(-c3ccc(-c4ccccc4)nc3)c2nc1[C@H]1CC[C@](O)(CCO)CC1` [Compound 159, 1-(7-amino-5-((1S,4S)-4-hydroxy-4-(2-hydroxyethyl)-cyclohexyl)-3-(6-phenylpyridin-3-yl)pyrazolo[1,5-a]pyrimidin-6-yl)ethanone] the same measures were 1 to 100 nM and 1 to 100 nM.
Consider `CC(=O)c1c(N)n2ncc(-c3ccc(-c4ccccc4)nc3)c2nc1[C@H]1CC[C@@](F)(C(=O)O)CC1` [Compound 17, (1R,4R)-4-(6-acetyl-7-amino-3-(6-phenylpyridin-3-yl)pyrazolo[1,5-a]pyrimidin-5-yl)-1-fluorocyclohexane-carboxylic acid], for which the IC50 in experiment [1] lay in the range of 1 to 100 nM; in experiment [2] (Homo sapiens, PC-3, 1.5 h) it was 100 to 1000 nM.
Taken in the same sequence, the figures for `Nc1c(Br)c(C2CCC(O)(CO)CC2)nc2c(-c3cnn(-c4ccccc4)c3)cnn12` (centres unmarked) [Compound 135, 4-(7-amino-6-bromo-3-(1-phenyl-1H-pyrazol-4-yl)pyrazolo[1,5-a]pyrimidin-5-yl)-1-(hydroxymethyl)-cyclohexanol] were 1 to 100 nM and 100 to 1000 nM.
For `CO[C@]1(C(=O)O)CC[C@H](c2nc3c(-c4cnc5ccc(F)cc5c4)cnn3c(N)c2C(C)=O)CC1` [Compound 38, (1S,4S)-4-(6-acetyl-7-amino-3-(6-fluoroquinolin-3-yl)pyrazolo[1,5-a]pyrimidin-5-yl)-1-methoxycyclohexane-carboxylic acid] the same measures were 1 to 100 nM and 100 to 1000 nM.
For `COCCOC[C@]1(C(=O)O)CC[C@@H](c2nc3c(-c4cnn(-c5ccccc5)c4)cnn3c(N)c2Br)CC1` [Compound 14, (1S,4S)-4-(7-amino-6-bromo-3-(1-phenyl-1H-pyrazol-4-yl)pyrazolo[1,5-a]pyrimidin-5-yl)-1-((2-methoxyethoxy)methyl)cyclohexane-carboxylic acid] the same measures were 1 to 100 nM and 5000 to 15000 nM.
Take `CC(=O)c1c(N)n2ncc(-c3cnn(-c4cnn(C)c4)c3)c2nc1[C@H]1CC[C@@](O)(CO)CC1` [Compound 148, 1-(7-amino-5-((1R,4R)-4-hydroxy-4-(hydroxymethyl)cyclohexyl)-3-(1′-methyl-1′H-1,4′-bipyrazol-4-yl)pyrazolo[1,5-a]pyrimidin-6-yl)ethanone]: the IC50 was in the range of 1 to 100 nM in experiment [1] and 2000 to 5000 nM in experiment [2] (Homo sapiens, PC-3, 1.5 h).
